Measured values taken from PubChem BioAssay (NCI).
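Dose response: 5 concentrations. Exposure: 48 h. Format: 96-well plates. Endpoint: linear interpolation; highest concentration if not reached. Here, GI50 denotes the concentration required for 50% inhibition of growth. Definition used: TGI = concentration required for complete inhibition of growth.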

Experiments:
Assay in all cases: DTP human tumour cell line panel, 48 h
[1] = system: MOLT-4 leukemia
[2] = system: UACC-62 melanoma
[3] = system: UACC-257 melanoma
[4] = system: COLO 205 colon
[5] = system: SR leukemia
[6] = system: MCF7 breast
[7] = system: EKVX NSCLC
[8] = system: SNB-75 CNS
[9] = system: XF 498 CNS
[10] = system: KM20L2 colon
[11] = system: DMS 114 small cell lung

With `COc1cc(/C=C/C(=O)c2cccc(-n3cc(-c4ccc(Cl)cc4)[nH]c3=O)c2)ccc1O` the GI50 [1] was 1.62 µM, the TGI [1] was over 25.1 µM and the GI50 [2] was 2.5 µM. The TGI [2] was 9.59 µM, the GI50 [3] was 5.53 µM and the TGI [3] was 18.6 µM. It also gave a GI50 [4] of 4.88 µM, a TGI [4] of 16 µM and a GI50 [5] of 11.8 µM. For the same molecule, the TGI [5] was over 100 µM, the GI50 [6] was 1.44 µM and the TGI [6] was 7.98 µM. It also gave a GI50 [7] of 6.6 µM, a TGI [7] of over 95.2 µM and a GI50 [8] of 2.36 µM. The TGI [8] was 10.2 µM.

`C=COC(=O)N[C@H]1CCc2cc(OC)c(OC)c(OC)c2-c2ccc(SC)c(=O)cc21` was tested, and the TGI [1] was over 96.8 µM, the TGI [2] was over 75 µM and the TGI [9] was over 62.3 µM. It also gave a TGI [3] of 77.7 µM, a TGI [4] of under 0.01 µM and a TGI [5] of over 15.5 µM. It also gave a TGI [6] of 59.8 µM, a TGI [7] of over 100 µM and a TGI [10] of under 0.01 µM. The TGI [8] was 14.4 µM.

`C=C1C(=O)OC2CC(C)C(C(O)CC(C)O)=CCC12` (centres undefined) gave a TGI [1] of 32.6 µM, a TGI [2] of 44.2 µM and a TGI [3] of 29.8 µM. It also gave a TGI [4] of 24.6 µM, a TGI [5] of 29.5 µM and a TGI [6] of 28.1 µM. The TGI [7] was 28.6 µM and the TGI [8] was 47.2 µM.

For `O=C(/C=C/C=C/c1ccccc1)c1ccccc1`, the TGI [1] was 49.4 µM, the TGI [2] was 33 µM and the TGI [3] was 34.2 µM. For the same molecule, the TGI [4] was 31.5 µM, the TGI [5] was 34.5 µM and the TGI [6] was 42.9 µM. For the same molecule, the TGI [7] was 28.6 µM and the TGI [8] was 41.9 µM.

`Cn1c(Nc2ccc(C(F)(F)F)cc2)nc2cc(Oc3ccnc(-c4ncc(C(F)(F)F)[nH]4)c3)ccc21` showed a GI50 [1] of 0.319 µM, a TGI [1] of 8.76 µM and a GI50 [2] of 0.0519 µM. For the same molecule, the TGI [2] was 3.89 µM, the GI50 [3] was 0.131 µM and the TGI [3] was 0.977 µM. It also gave a GI50 [4] of 0.367 µM, a TGI [4] of 10.6 µM and a GI50 [5] of 0.0457 µM. For the same molecule, the TGI [5] was 13.2 µM, the GI50 [6] was 3.38 µM and the TGI [6] was 14.4 µM. It also gave a GI50 [7] of 2.33 µM, a TGI [7] of 19.1 µM and a GI50 [8] of 0.297 µM. For the same molecule, the TGI [8] was 26.2 µM.

`CC(C(=O)O)c1cccc(Oc2ccccc2)c1` (centres undefined) was tested, and the GI50 [1] was over 100 µM, the TGI [1] was over 100 µM and the GI50 [2] was over 100 µM. For the same molecule, the TGI [2] was over 100 µM, the GI50 [3] was over 100 µM and the TGI [3] was over 100 µM. For the same molecule, the GI50 [4] was over 100 µM, the TGI [4] was over 100 µM and the GI50 [5] was over 100 µM. The TGI [5] was over 100 µM, the GI50 [6] was over 100 µM and the TGI [6] was over 100 µM. The GI50 [7] was over 100 µM, the TGI [7] was over 100 µM and the GI50 [8] was over 100 µM. For the same molecule, the TGI [8] was over 100 µM.

With `COC(=O)C1=C(C(=O)OC)C2=S(SC3=C2CCCC3)S1` (centres undefined) the TGI [1] was over 100 µM, the TGI [2] was over 100 µM and the TGI [3] was over 100 µM. For the same molecule, the TGI [4] was over 100 µM, the TGI [7] was over 100 µM and the TGI [10] was 76.5 µM. It also gave a TGI [8] of 62.7 µM.

`O=c1[nH]c2ccc(O)cc2o1` was tested, and the TGI [1] was over 100 µM, the TGI [2] was over 100 µM and the TGI [3] was over 100 µM. For the same molecule, the TGI [4] was over 100 µM, the TGI [5] was over 100 µM and the TGI [6] was over 100 µM. It also gave a TGI [7] of over 100 µM and a TGI [8] of over 100 µM.

`COC(=O)C1=CN(CC2=CC(=O)C(C)=CC2=O)C=C(C(=O)OC)C1c1cccc(OC)c1` showed a GI50 [1] of 3.11 µM, a TGI [1] of over 100 µM and a GI50 [2] of 13.6 µM. For the same molecule, the TGI [2] was 29.4 µM, the GI50 [3] was 16.3 µM and the TGI [3] was 31 µM. The GI50 [4] was 18.4 µM, the TGI [4] was over 66.6 µM and the GI50 [5] was 4.74 µM. It also gave a TGI [5] of 35 µM, a GI50 [6] of 16 µM and a TGI [6] of over 100 µM. For the same molecule, the GI50 [7] was 12.2 µM, the TGI [7] was 27.2 µM and the GI50 [8] was 31 µM. It also gave a TGI [8] of over 100 µM.

With `BrCc1cccc(C[P+](c2ccccc2)(c2ccccc2)c2ccccc2)c1` the GI50 [1] was 65 µM, the TGI [1] was over 100 µM and the GI50 [2] was 7.97 µM. The TGI [2] was over 100 µM, the GI50 [3] was 5.49 µM and the TGI [3] was over 100 µM. For the same molecule, the GI50 [4] was 4.57 µM, the TGI [4] was 18.9 µM and the GI50 [5] was 25.8 µM. It also gave a TGI [5] of over 100 µM, a GI50 [6] of 13.4 µM and a TGI [6] of over 100 µM. For the same molecule, the GI50 [7] was 18.1 µM, the TGI [7] was over 100 µM and the GI50 [8] was 6.78 µM. It also gave a TGI [8] of over 100 µM.

`COc1ccc(C2=C(c3ccc(OC)cc3)C(=O)N3CCCC3C2)cc1` (centres undefined) gave a GI50 [1] of 15.5 µM, a TGI [1] of over 100 µM and a GI50 [2] of 9.09 µM. It also gave a TGI [2] of over 100 µM, a GI50 [3] of 32.9 µM and a TGI [3] of over 100 µM. The GI50 [4] was 7.43 µM, the TGI [4] was over 100 µM and the GI50 [5] was over 37.1 µM. The TGI [5] was over 100 µM, the GI50 [6] was 12.8 µM and the TGI [6] was over 100 µM. The GI50 [7] was 30.2 µM, the TGI [7] was over 100 µM and the GI50 [8] was 15.6 µM. The TGI [8] was over 72.7 µM.

Work on `C[C@H](Nc1cc(Cl)nc2c1cnn2[C@@H]1O[C@H](COP(=O)(O)CP(=O)(O)O)[C@@H](O)[C@H]1O)c1ccccc1F` yielded a GI50 [1] of over 100 µM, a TGI [1] of over 100 µM and a GI50 [2] of over 100 µM. For the same molecule, the TGI [2] was over 100 µM, the GI50 [3] was over 100 µM and the TGI [3] was over 100 µM. For the same molecule, the GI50 [4] was over 100 µM, the TGI [4] was over 100 µM and the GI50 [5] was over 100 µM. It also gave a TGI [5] of over 100 µM, a GI50 [6] of over 100 µM and a TGI [6] of over 100 µM. The GI50 [7] was over 100 µM, the TGI [7] was over 100 µM and the GI50 [8] was over 100 µM. It also gave a TGI [8] of over 100 µM.

`COc1ccccc1Nc1ncc(-c2ccccc2)o1` gave a GI50 [1] of over 25 µM, a TGI [1] of over 25 µM and a GI50 [2] of over 25 µM. For the same molecule, the TGI [2] was over 25 µM, the GI50 [3] was over 25 µM and the TGI [3] was over 25 µM. The GI50 [4] was over 25 µM, the TGI [4] was over 25 µM and the GI50 [5] was over 25 µM. It also gave a TGI [5] of over 25 µM, a GI50 [6] of over 25 µM and a TGI [6] of over 25 µM. It also gave a GI50 [7] of over 25 µM, a TGI [7] of over 25 µM and a GI50 [8] of over 25 µM. The TGI [8] was over 25 µM.

In the case of `Cc1ccc2c(C3C(C#N)=C(N)Oc4cc5ccccc5cc43)cc(=O)oc2c1` (centres undefined), the GI50 [1] is reported as 2.05 µM, the TGI [1] is reported as over 100 µM and the GI50 [2] is reported as 0.704 µM. The TGI [2] was over 100 µM, the GI50 [3] was 24.5 µM and the TGI [3] was over 100 µM. The GI50 [4] was 2.88 µM, the TGI [4] was 17.3 µM and the GI50 [5] was 0.525 µM. For the same molecule, the TGI [5] was over 100 µM, the GI50 [6] was 0.428 µM and the TGI [6] was over 100 µM. It also gave a GI50 [7] of 4.44 µM, a TGI [7] of over 100 µM and a GI50 [8] of 6.89 µM. The TGI [8] was over 100 µM.

`COC12OCCN(C)C1=CC(=O)C1=NNC(C)C12` (centres undefined) showed a TGI [1] of over 100 µM, a TGI [2] of over 100 µM and a TGI [3] of over 100 µM. For the same molecule, the TGI [4] was over 100 µM, the TGI [7] was over 100 µM and the TGI [11] was over 100 µM. The TGI [8] was over 100 µM.

With `CCOC(=O)c1c(-c2ccc(OC)cc2)c(C#N)c2c(C#N)c(N)nn2c1N` the GI50 [1] was 4.07 µM, the TGI [1] was over 100 µM and the GI50 [2] was 2.47 µM. The TGI [2] was 15.2 µM, the GI50 [3] was 8.18 µM and the TGI [3] was over 100 µM. The GI50 [4] was 2.8 µM, the TGI [4] was 9.98 µM and the GI50 [5] was 2.05 µM. The TGI [5] was over 100 µM, the GI50 [6] was 3.31 µM and the TGI [6] was over 100 µM. For the same molecule, the GI50 [7] was 4.8 µM, the TGI [7] was over 100 µM and the GI50 [8] was 1.84 µM. For the same molecule, the TGI [8] was 7.59 µM.

Molecule `CN(C)CCC(=O)C(=Cc1ccc(O)cc1)C(=O)CCN(C)C` has a GI50 [1] of 80 µM, a TGI [1] of over 100 µM and a GI50 [2] of over 100 µM. The TGI [2] was over 100 µM, the GI50 [3] was over 100 µM and the TGI [3] was over 100 µM. For the same molecule, the GI50 [4] was 50.9 µM, the TGI [4] was over 100 µM and the GI50 [5] was 93.2 µM. The TGI [5] was over 100 µM, the GI50 [6] was 30.9 µM and the TGI [6] was over 100 µM. For the same molecule, the GI50 [7] was over 100 µM, the TGI [7] was over 100 µM and the GI50 [8] was over 100 µM. It also gave a TGI [8] of over 100 µM.
